# Laboratory results as given in US12276654B2, “Chemical probe-dependent evaluation of protein activity and uses thereof” (The University of Chicago, priority 2017, dated 2025).
# “Also recorded” adds a separate entry of the source.
# Experiments:
# PAFAH2 = target: T1, PAFAH2 (Homo sapiens, UniProt Q99487); test: ADPL quantification of PAFAH2 activity in stable PAFAH2 expressing PC3 cells; assay type: cell-based; conditions: same dose-range (0-1 μM)
# T1 construct: Full-length, human ESD (NM_001984) and PAFAH2 (NM_000437) in pCMV6 entry vectors with C-terminal Myc-DDK tag
# Description: Cells were seeded in the 12-well chamber slide, typically at 10,000-30,000 cells per well (Ibidi, #81201). To get an even distribution of the cells, the chamber slide was pre-wetted with cell culture medium, drained off, and the chamber was left at room temperature for 5-10 min after seeding. Cells at 80-90% confluency were pulse treated with either FP-Bio (2 μM) in DMEM and incubated at 37° C. for 40 min or Capthepsin probe (5 μM) in complete medium and incubated at 37° C. for 3 hr. Cells were washed with PBS, fixed with 4% paraformaldehyde in PBS at room temperature for 15 minutes, washed twice with PBS for 5 minutes each at room temperature with orbital shaking and then permeabilized in 0.5% Triton X-100 in PBS at room temperature for 15 minutes. Finally, cells were washed twice with 0.05% Tween-20 in PBS for 5 minutes each at room temperature with orbital shaking.
# Prior to antibody incubation, the chamber was removed and the well boundaries delineated with the hydrophobic barrier pen (Vector laboratories, #H-4000). One-drop Duolink blocking buffer (Sigma, #DUO92004) was added and the slide was incubated at 37° C. for 30 minutes in a humidified chamber. […]
# NCEH1 = target: T2, NCEH1 (Mus musculus, UniProt Q8BLF1); test: sADPL in vivo target engagement in mPBMCs after oral gavage, NCEH1; conditions: mice
# T2 construct: Then the mPBMCs were acquired from the mouse blood and subjected to family wide probe treatment; from tissue; host or cells: mouse blood PBMCs (mPBMCs)
# T2 sequence (Q8BLF1 1-408): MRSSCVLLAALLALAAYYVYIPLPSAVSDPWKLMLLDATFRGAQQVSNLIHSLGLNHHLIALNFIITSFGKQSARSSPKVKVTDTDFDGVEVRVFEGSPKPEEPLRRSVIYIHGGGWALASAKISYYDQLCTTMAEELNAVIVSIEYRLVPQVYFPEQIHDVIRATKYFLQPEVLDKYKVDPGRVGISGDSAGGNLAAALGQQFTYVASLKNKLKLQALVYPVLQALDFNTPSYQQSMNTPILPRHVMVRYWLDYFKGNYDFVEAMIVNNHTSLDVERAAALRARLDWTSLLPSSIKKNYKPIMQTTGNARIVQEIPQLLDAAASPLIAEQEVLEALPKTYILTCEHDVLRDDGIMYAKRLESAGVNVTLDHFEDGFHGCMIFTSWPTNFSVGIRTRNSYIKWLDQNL
# Source text: FIG. 25. In vivo Target Engagement. The mice were administrated with vehicle (PEG300) or NCEH1 inhibitor JW480 by oral gavage. Then the mPBMCs were acquired from the mouse blood and subjected to family wide probe treatment to profile the in vivo target engagement.
# Following the in vitro study, in vivo target engagement was planned. In this experiment, the inventors orally gavaged the mice with vehicle or inhibitors, then collected the mPBMCs for probe treatment and sADPL measurement. Again, first the activity of NCEH1 was tested in mice PBMCs, and good activity was found. The delta Ct is over 7 cycles, which is over 100 fold change.
smiles,measurement,setting,value
CC(C)c1ccccc1OC(=O)NCCc1ccc2ccccc2c1 [JW480],effect on PAFAH2 activity (ADPL signal),PAFAH2,no inhibition of target signal was observed; also recorded: no effect
same,NCEH1 activity in mPBMCs (raw Ct values),NCEH1; 3 mg/kg (partial inhibition) vs vehicle PEG300,lower activity
same,NCEH1 activity in mPBMCs (raw Ct values),NCEH1; 80 mg/kg (complete inhibition) vs vehicle PEG300,even lower activity
